Laboratory results taken from patent US9884832B2 (priority 2011, dated 2018).
Like-named read-outs stand apart in the source and are kept apart here.

Experiments:
[1] = target: AM2 S31N (serine→asparagine mutation at residue 31 in the M2 protein) (Influenza A virus, UniProt P0DOF5, S31N); assay type: cell-based, influenza virus A/Udorn/72
[2] = target: AM2 V27A (valine→alanine mutation at residue 27 in the M2 protein) (Influenza A virus, UniProt P0DOF5, V27A); assay type: cell-based, influenza virus A/Udorn/72

With `CCc1ccc(CNC23CC4CC(CC(C4)C2)C3)s1` [Example 98a, N-((5-ethylthiophen-2-yl)methyl)adamantan-1-amine] the “S31N OOcyte Inhibition at 100 uM (%)” value [1] was “A (key: (A)=31-95%; (B)=0-30%)” and the “V27A OOcyte Inhibition at 100 uM (%)” value [2] was “B (key: (A)=31-95%; (B)=0-30%)”.

With `FC(F)(F)Oc1ccc(CNC23CC4CC(CC(C4)C2)C3)cc1` [Example 4a, Adamantan-1-yl-(4-trifluoromethoxy-benzyl)-amine] the “S31N OOcyte Inhibition at 100 uM (%)” value [1] was “B (key: (A)=31-95%; (B)=0-30%)” and the “V27A OOcyte Inhibition at 100 uM (%)” value [2] was “B (key: (A)=31-95%; (B)=0-30%)”.

In the case of `Brc1ccc(-c2ccc(CNC34CC5CC(CC(C5)C3)C4)s2)s1` [Example 159a, N-((5′-bromo-[2,2′-bithiophen]-5-yl)methyl)adamantan-1-amine], the “S31N OOcyte Inhibition at 100 uM (%)” value [1] is reported as “A (key: (A)=31-95%; (B)=0-30%)” and the “V27A OOcyte Inhibition at 100 uM (%)” value [2] is reported as “B (key: (A)=31-95%; (B)=0-30%)”.

With `COc1ccc2cc(CNC34CC5CC(CC(C5)C3)C4)[nH]c2c1` [Example 186a, N-((6-methoxy-1H-indol-2-yl)methyl)adamantan-1-amine] the “S31N OOcyte Inhibition at 100 uM (%)” value [1] was “A (key: (A)=31-95%; (B)=0-30%)” and the “V27A OOcyte Inhibition at 100 uM (%)” value [2] was “B (key: (A)=31-95%; (B)=0-30%)”.

With `NCc1ccc(CNC23CC4CC(CC(C4)C2)C3)cc1` [Example 13, Adamantan-1-yl-(4-aminomethyl-benzyl)-amine] the “S31N OOcyte Inhibition at 100 uM (%)” value ([1]; pH 5.5) was “B (key: (A)=31-95%; (B)=0-30%)” and the “V27A OOcyte Inhibition at 100 uM (%)” value ([2]; pH 5.5) was “A (key: (A)=31-95%; (B)=0-30%)”.

`CC(C)(C)C1CCC(NCc2ccc(O)cc2O)CC1` (stereo not shown) [Example 109, 4-[(4-tert-Butyl-cyclohexylamino)-methyl]-benzene-1,3-diol] was tested, and the “S31N OOcyte Inhibition at 100 uM (%)” value ([1]; pH 5.5) was “B (key: (A)=31-95%; (B)=0-30%)” and the “V27A OOcyte Inhibition at 100 uM (%)” value ([2]; pH 5.5) was “A (key: (A)=31-95%; (B)=0-30%)”.

In the case of `CSc1ccc(CNC2C3CC4CC(C3)CC2C4)cc1` (stereo not shown) [Example 103, Adamantan-2-yl-(4-methylsulfanyl-benzyl)-amine], the “S31N OOcyte Inhibition at 100 uM (%)” value ([1]; pH 5.5) is reported as “A (key: (A)=31-95%; (B)=0-30%)” and the “V27A OOcyte Inhibition at 100 uM (%)” value ([2]; pH 5.5) is reported as “A (key: (A)=31-95%; (B)=0-30%)”.

`c1csc(-c2csc(CNC34CC5CC(CC(C5)C3)C4)c2)c1` [Example 140a, Adamantan-1-yl-[2,3′]bithiophenyl-5′-ylmethyl-amine] was tested, and the “S31N OOcyte Inhibition at 100 uM (%)” value [1] was “A (key: (A)=31-95%; (B)=0-30%)” and the “V27A OOcyte Inhibition at 100 uM (%)” value [2] was “A (key: (A)=31-95%; (B)=0-30%)”.

With `c1coc(-c2cc(CNC34CC5CC(CC(C5)C3)C4)no2)c1` [Example 153a, N-((5-(furan-2-yl)isoxazol-3-yl)methyl)adamantan-1-amine] the “S31N OOcyte Inhibition at 100 uM (%)” value [1] was “A (key: (A)=31-95%; (B)=0-30%)” and the “V27A OOcyte Inhibition at 100 uM (%)” value [2] was “B (key: (A)=31-95%; (B)=0-30%)”.

With `c1cc(-c2ccc(CNC34CC5CC(CC(C5)C3)C4)cc2)co1` [Example 42, N-(4-(Furan-3-yl)benzyl)adamantan-1-amine] the “S31N OOcyte Inhibition at 100 uM (%)” value ([1]; pH 5.5) was “A (key: (A)=31-95%; (B)=0-30%)” and the “V27A OOcyte Inhibition at 100 uM (%)” value ([2]; pH 5.5) was “B (key: (A)=31-95%; (B)=0-30%)”.

With `c1csc(CNC23CC4CC(CC(C4)C2)C3)n1` [Example 71a, Adamantan-1-yl-thiazol-2-ylmethyl-amine] the “S31N OOcyte Inhibition at 100 uM (%)” value [1] was “A (key: (A)=31-95%; (B)=0-30%)” and the “V27A OOcyte Inhibition at 100 uM (%)” value [2] was “B (key: (A)=31-95%; (B)=0-30%)”.

With `O=C(Oc1ccc(CNC23CC4CC(CC(C4)C2)C3)cc1)c1cccs1` [Example 37, Thiophene-2-carboxylic acid 4-(adamantan-1-ylaminomethyl)-phenyl ester] the “S31N OOcyte Inhibition at 100 uM (%)” value ([1]; pH 5.5) was “A (key: (A)=31-95%; (B)=0-30%)” and the “V27A OOcyte Inhibition at 100 uM (%)” value ([2]; pH 5.5) was “B (key: (A)=31-95%; (B)=0-30%)”.

`c1cnc2ccc(CNC34CC5CC(CC(C5)C3)C4)cc2c1` [Example 39a, Adamantan-1-yl-quinolin-6-ylmethyl-amine] was tested, and the “S31N OOcyte Inhibition at 100 uM (%)” value [1] was “A (key: (A)=31-95%; (B)=0-30%)” and the “V27A OOcyte Inhibition at 100 uM (%)” value [2] was “B (key: (A)=31-95%; (B)=0-30%)”.

For `Oc1cc(O)c(CNC23CC4CC(CC(C4)C2)C3)c(O)c1` [Example 70, 2-(Adamantan-1-ylaminomethyl)-benzene-1,3,5-triol], the “S31N OOcyte Inhibition at 100 uM (%)” value ([1]; pH 5.5) was “B (key: (A)=31-95%; (B)=0-30%)” and the “V27A OOcyte Inhibition at 100 uM (%)” value ([2]; pH 5.5) was “B (key: (A)=31-95%; (B)=0-30%)”.

In the case of `Oc1ccc(CNC2C3CC4CC(C3)CC2C4)c(O)c1` (stereo not shown) [Example 100, 4-(Adamantan-2-ylaminomethyl)-benzene-1,3-diol], the “S31N OOcyte Inhibition at 100 uM (%)” value ([1]; pH 5.5) is reported as “B (key: (A)=31-95%; (B)=0-30%)” and the “V27A OOcyte Inhibition at 100 uM (%)” value ([2]; pH 5.5) is reported as “A (key: (A)=31-95%; (B)=0-30%)”.

For `c1cn2cc(CNC3C4CC5CC(C4)CC3C5)nc2s1` (stereo not shown) [Example 107, Adamantan-2-yl-imidazo[2,1-b]thiazol-6-ylmethyl-amine], the “S31N OOcyte Inhibition at 100 uM (%)” value ([1]; pH 5.5) was “B (key: (A)=31-95%; (B)=0-30%)” and the “V27A OOcyte Inhibition at 100 uM (%)” value ([2]; pH 5.5) was “B (key: (A)=31-95%; (B)=0-30%)”.

`COc1ccc(-c2ccc(CNC34CC5CC(CC(C5)C3)C4)s2)cc1` [Example 113a, N-((5-(4-methoxyphenyl)thiophen-2-yl)methyl)adamantan-1-amine] was tested, and the “S31N OOcyte Inhibition at 100 uM (%)” value [1] was “A (key: (A)=31-95%; (B)=0-30%)” and the “V27A OOcyte Inhibition at 100 uM (%)” value [2] was “B (key: (A)=31-95%; (B)=0-30%)”.

With `Oc1ccc(CNC23CC4CCC(CC(C4)C2)C3)c(O)c1` [Example 110, 4-(Tricyclo[4.3.1.13,8]undec-1-ylaminomethyl)-benzene-1,3-diol] the “S31N OOcyte Inhibition at 100 uM (%)” value ([1]; pH 5.5) was “A (key: (A)=31-95%; (B)=0-30%)” and the “V27A OOcyte Inhibition at 100 uM (%)” value ([2]; pH 5.5) was “A (key: (A)=31-95%; (B)=0-30%)”.

`C[Si](C)(C)CCCNCc1ccc(O)cc1O` [Example 113, 4-[(3-Trimethylsilanyl-propylamino)-methyl]-benzene-1,3-diol] was tested, and the “S31N OOcyte Inhibition at 100 uM (%)” value ([1]; pH 5.5) was “B (key: (A)=31-95%; (B)=0-30%)” and the “V27A OOcyte Inhibition at 100 uM (%)” value ([2]; pH 5.5) was “B (key: (A)=31-95%; (B)=0-30%)”.

With `c1nc2ccc(CNC34CC5CC(CC(C5)C3)C4)cc2[nH]1` [Example 94, Adamantan-1-yl-(3H-benzoimidazol-5-ylmethyl)-amine] the “S31N OOcyte Inhibition at 100 uM (%)” value ([1]; pH 5.5) was “B (key: (A)=31-95%; (B)=0-30%)” and the “V27A OOcyte Inhibition at 100 uM (%)” value ([2]; pH 5.5) was “B (key: (A)=31-95%; (B)=0-30%)”.

In the case of `Clc1ccc(COc2ccc(CNC34CC5CC(CC(C5)C3)C4)cc2)cc1` [Example 16a, Adamantan-1-yl-[4-(4-chloro-benzyloxy)-benzyl]-amine], the “S31N OOcyte Inhibition at 100 uM (%)” value [1] is reported as “A (key: (A)=31-95%; (B)=0-30%)” and the “V27A OOcyte Inhibition at 100 uM (%)” value [2] is reported as “B (key: (A)=31-95%; (B)=0-30%)”.

`c1csc(-c2ccc(-c3ccc(CNC45CC6CC(CC(C6)C4)C5)s3)s2)c1` [Example 157a, N-([2,2′:5′,2″-terthiophen]-5-ylmethyl)adamantan-1-amine] was tested, and the “S31N OOcyte Inhibition at 100 uM (%)” value [1] was “B (key: (A)=31-95%; (B)=0-30%)” and the “V27A OOcyte Inhibition at 100 uM (%)” value [2] was “B (key: (A)=31-95%; (B)=0-30%)”.

In the case of `COc1ccc(CNC23CC4CC(CC(C4)C2)C3)cc1` [Example 16, Adamantan-1-yl-(4-methoxy-benzyl)-amine], the “S31N OOcyte Inhibition at 100 uM (%)” value ([1]; pH 5.5) is reported as “A (key: (A)=31-95%; (B)=0-30%)” and the “V27A OOcyte Inhibition at 100 uM (%)” value ([2]; pH 5.5) is reported as “A (key: (A)=31-95%; (B)=0-30%)”.
